Results on two compounds are retold here after patent US10927106B2, “Benzothiazole derivatives as DYRK1 inhibitors” (PHARMASUM THERAPEUTICS AS, priority 2017, dated 2021).

Test [1] concerns tau/MAPT phosphorylation in control neurons. As to the kind of experiment: Tau/MAPT phosphorylation in control neurons, Western blotting. It is filed as cell-based, human. The conditions noted are these: treated for 10 days, compared to DMSO treated controls. As to the method: (§1) Overexpression of DYRK1A in DS is thought to account for increased tau phosphorylation by GSK3β and the increase in DYRK1A positive neurofibrillary tangles (NFTs) in the brains of people with DS and AD. Therefore therapeutic inhibition of DYRK1A activity in DS and AD may delay the progression of neurodegeneration in DS and AD. The following experiment on reduction of tau phosphorylation by inhibition of DYRK1A by inhibitor 4-93 was performed as described in the literature (Shi, Y. et al. A human stem cell model of early Alzheimer's disease pathology in Down syndrome. Sci. Transl. Med. 4, 124ra29 (2012)).
(§2) Neuronal cultures at day 40 were treated with DYRK1A inhibitors and control compounds for 10 days. Total protein was extracted and total tau and phosphorylated tau/MAPT was quantified by Western blotting using antibodies to total tau and a number of phospho-tau epitopes.
(In general: Immunoblotting shows a protein as a band on a membrane.)

Another test deals with EPH-B1 (Homo sapiens (Human), UniProt P54762). As to the kind of experiment: Kinase profiling, 33P ATP filter binding assay. It is filed as biochemical. The conditions noted are these: 1 micromolar inhibitor concentration, read-out: percentage inhibition.
Sequence of EPH-B1 (P54762 18-984, species assumed): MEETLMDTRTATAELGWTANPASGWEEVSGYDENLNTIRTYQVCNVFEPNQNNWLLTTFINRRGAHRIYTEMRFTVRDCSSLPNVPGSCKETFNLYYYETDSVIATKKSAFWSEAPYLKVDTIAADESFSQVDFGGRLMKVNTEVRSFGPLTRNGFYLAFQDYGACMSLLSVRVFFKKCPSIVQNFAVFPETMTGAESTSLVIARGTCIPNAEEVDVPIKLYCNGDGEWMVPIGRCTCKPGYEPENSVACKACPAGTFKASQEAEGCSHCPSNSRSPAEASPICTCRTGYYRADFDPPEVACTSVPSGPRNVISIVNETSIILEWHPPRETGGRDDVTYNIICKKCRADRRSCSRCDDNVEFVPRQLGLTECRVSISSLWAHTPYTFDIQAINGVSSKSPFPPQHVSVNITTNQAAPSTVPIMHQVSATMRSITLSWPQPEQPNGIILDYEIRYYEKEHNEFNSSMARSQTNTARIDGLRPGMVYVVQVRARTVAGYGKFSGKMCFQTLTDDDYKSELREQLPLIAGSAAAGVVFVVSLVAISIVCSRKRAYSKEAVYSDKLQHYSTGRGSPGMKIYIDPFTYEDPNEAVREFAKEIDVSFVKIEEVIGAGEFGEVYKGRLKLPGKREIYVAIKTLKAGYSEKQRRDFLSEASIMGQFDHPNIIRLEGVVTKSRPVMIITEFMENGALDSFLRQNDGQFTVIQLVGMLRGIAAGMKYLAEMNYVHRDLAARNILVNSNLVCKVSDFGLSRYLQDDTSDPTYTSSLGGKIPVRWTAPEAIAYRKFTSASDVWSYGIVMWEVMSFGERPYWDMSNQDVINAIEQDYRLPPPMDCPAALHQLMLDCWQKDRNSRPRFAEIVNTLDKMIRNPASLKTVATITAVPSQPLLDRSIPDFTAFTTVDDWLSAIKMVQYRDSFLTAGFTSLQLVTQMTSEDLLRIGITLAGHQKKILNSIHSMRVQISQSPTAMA
The target of the next test is Aurora B (Homo sapiens (Human), UniProt Q96GD4). As to the kind of experiment: Kinase profiling, 33P ATP filter binding assay. It is filed as biochemical. The following applies: 1 micromolar inhibitor concentration, read-out: percentage inhibition.
Sequence of Aurora B (Q96GD4 whole entry): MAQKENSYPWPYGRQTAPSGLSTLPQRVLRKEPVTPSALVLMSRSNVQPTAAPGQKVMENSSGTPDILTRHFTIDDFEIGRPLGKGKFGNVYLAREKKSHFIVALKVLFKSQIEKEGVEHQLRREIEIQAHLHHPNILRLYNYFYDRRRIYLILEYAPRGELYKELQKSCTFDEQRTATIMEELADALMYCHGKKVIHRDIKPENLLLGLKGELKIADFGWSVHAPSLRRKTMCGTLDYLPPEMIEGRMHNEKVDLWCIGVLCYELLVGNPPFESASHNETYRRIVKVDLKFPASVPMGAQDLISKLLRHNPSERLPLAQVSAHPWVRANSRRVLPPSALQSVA
Another test deals with RIPK2 (Homo sapiens (Human), UniProt O43353). As to the kind of experiment: Kinase profiling, 33P ATP filter binding assay. It counts as biochemical. The following applies: 1 micromolar inhibitor concentration, read-out: percentage inhibition.
Sequence of RIPK2 (O43353 whole entry, species assumed): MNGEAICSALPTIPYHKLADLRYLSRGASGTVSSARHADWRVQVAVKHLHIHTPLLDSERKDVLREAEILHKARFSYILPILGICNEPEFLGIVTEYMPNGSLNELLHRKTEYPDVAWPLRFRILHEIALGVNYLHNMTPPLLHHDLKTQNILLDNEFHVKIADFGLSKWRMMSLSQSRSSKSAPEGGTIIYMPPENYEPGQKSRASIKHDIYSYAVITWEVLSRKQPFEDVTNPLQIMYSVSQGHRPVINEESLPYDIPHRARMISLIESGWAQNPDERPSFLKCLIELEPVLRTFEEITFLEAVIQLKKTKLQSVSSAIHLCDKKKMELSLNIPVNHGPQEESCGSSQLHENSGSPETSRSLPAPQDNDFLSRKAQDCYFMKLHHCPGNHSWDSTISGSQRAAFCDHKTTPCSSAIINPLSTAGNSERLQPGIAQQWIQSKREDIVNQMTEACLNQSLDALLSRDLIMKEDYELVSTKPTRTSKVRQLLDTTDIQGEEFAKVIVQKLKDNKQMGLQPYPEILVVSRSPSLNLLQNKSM
Test [2] relates to tau/MAPT phosphorylation in TS21 neurons. As to the kind of experiment: Tau/MAPT phosphorylation in TS21 neuronal cultures, Western blotting. It counts as cell-based, human. The following applies: TS21 neurons. As to the method: as §1, §2
In a further test the target is JNK3 (Homo sapiens (Human), UniProt P53779). Put plainly: Kinase profiling, 33P ATP filter binding assay. The following applies: 1 micromolar inhibitor concentration, read-out: percentage inhibition. It counts as biochemical.
Sequence of JNK3 (P53779 whole entry, species assumed): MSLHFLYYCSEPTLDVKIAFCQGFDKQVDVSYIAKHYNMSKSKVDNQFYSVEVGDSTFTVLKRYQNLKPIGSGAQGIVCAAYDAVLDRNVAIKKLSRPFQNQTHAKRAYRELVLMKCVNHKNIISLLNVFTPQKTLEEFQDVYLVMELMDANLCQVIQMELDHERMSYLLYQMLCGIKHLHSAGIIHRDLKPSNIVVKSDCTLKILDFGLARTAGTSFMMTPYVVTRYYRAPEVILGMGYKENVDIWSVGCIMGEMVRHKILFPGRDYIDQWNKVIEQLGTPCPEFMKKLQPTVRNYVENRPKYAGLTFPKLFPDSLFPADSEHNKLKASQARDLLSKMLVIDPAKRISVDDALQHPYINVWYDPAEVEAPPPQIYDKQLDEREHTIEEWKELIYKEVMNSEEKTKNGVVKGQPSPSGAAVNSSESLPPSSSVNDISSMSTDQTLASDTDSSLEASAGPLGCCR
The next test has as its target PAK5 (Homo sapiens (Human), UniProt Q9P286). Put plainly: Kinase profiling, 33P ATP filter binding assay. It counts as biochemical. The following applies: 1 micromolar inhibitor concentration, read-out: percentage inhibition.
The target of another test is IRAK4 (Homo sapiens (Human), UniProt Q9NWZ3). As to the kind of experiment: Kinase profiling, 33P ATP filter binding assay. It is filed as biochemical. The following applies: 1 micromolar inhibitor concentration, read-out: percentage inhibition.
Sequence of IRAK4 (Q9NWZ3 whole entry, species assumed): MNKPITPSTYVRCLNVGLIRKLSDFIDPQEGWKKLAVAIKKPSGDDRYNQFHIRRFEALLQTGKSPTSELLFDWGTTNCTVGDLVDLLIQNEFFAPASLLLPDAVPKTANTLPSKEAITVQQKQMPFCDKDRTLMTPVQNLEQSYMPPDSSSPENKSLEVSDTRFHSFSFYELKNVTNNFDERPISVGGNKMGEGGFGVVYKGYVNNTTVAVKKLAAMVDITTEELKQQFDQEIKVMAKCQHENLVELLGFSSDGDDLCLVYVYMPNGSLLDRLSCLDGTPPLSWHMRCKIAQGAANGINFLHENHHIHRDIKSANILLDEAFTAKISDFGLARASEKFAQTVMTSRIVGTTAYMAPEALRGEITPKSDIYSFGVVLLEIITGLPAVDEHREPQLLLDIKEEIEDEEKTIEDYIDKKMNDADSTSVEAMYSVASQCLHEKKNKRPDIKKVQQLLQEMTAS
The next test relates to ROCK 2. The following applies: 1 micromolar inhibitor concentration.
The next test concerns the target CLK2 (Homo sapiens (Human), UniProt P49760). Put plainly: Kinase profiling, 33P ATP filter binding assay. It is filed as biochemical. The conditions noted are these: 1 micromolar inhibitor concentration, read-out: percentage inhibition.
The test system of a further test is PHK. The conditions noted are these: 1 micromolar inhibitor concentration.
For another test, the system named is AMPK (hum). The following applies: 1 micromolar inhibitor concentration.
The next test relates to PINK. The conditions noted are these: 1 micromolar inhibitor concentration.
For a further test, the target named is GSK3b (Homo sapiens (Human), UniProt P49841). As to the kind of experiment: Kinase profiling, 33P ATP filter binding assay. It is filed as biochemical. The following applies: 1 micromolar inhibitor concentration, read-out: percentage inhibition.
Sequence of GSK3b (P49841 whole entry, species assumed): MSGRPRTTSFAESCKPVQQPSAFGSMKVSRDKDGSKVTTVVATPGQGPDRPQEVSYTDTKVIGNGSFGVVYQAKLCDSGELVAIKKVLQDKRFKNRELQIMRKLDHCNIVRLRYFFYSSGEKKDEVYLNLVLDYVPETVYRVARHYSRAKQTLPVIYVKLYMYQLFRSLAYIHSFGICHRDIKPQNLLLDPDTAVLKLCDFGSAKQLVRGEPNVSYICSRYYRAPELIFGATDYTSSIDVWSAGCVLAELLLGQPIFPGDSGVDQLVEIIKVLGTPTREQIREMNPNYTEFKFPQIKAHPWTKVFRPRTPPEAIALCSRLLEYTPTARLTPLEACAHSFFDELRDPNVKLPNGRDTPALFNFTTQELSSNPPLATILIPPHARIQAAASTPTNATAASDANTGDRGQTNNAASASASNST
Setting [3] is: ten days treatment, vs DMSO treated controls or DAPT treated positive controls.
The mark [4] stands for this setting: treated for 10 days, normalised to β-actin, vs DMSO treated controls.

Sequence of PAK5 (Q9P286 whole entry): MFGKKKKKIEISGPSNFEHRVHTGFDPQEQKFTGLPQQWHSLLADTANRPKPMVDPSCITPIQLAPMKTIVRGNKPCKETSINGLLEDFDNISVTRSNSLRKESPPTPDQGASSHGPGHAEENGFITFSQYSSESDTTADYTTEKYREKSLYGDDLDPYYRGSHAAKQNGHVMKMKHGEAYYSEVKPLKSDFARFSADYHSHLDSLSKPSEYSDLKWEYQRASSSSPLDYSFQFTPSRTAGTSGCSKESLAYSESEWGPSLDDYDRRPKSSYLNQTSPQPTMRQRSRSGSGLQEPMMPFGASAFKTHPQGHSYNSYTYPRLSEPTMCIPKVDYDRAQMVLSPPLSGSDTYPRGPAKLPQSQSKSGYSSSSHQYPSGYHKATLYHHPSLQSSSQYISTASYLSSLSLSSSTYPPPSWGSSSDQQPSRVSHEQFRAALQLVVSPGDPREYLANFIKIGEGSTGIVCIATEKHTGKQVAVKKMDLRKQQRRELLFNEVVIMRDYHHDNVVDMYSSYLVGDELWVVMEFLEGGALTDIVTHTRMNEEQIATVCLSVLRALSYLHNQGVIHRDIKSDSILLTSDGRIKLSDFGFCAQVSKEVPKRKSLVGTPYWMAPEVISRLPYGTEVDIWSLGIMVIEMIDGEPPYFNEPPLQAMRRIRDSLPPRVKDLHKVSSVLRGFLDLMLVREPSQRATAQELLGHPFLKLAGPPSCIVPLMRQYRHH
Sequence of CLK2 (P49760 whole entry, species assumed): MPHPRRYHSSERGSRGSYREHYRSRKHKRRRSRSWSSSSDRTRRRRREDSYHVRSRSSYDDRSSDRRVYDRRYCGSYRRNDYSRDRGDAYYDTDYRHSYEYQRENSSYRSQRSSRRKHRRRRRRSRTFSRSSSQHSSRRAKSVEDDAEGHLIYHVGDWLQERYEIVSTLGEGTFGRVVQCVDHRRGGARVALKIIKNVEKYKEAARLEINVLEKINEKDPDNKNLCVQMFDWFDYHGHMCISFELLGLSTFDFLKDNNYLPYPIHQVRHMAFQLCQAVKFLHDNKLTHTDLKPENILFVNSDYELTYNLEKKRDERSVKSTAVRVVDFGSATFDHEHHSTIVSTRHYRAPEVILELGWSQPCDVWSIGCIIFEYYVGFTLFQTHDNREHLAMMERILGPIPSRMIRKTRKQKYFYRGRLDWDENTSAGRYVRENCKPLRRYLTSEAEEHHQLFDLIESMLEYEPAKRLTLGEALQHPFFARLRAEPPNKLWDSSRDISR
Text for AMPK (hum): The ATP concentrations were at or below the calculated Km for ATP for each particular kinase.
Experimental for PHK: (§3) The determination of protein kinase inhibition was performed at the International Centre for Kinase Profiling at the University of Dundee, UK. […] The ATP concentrations were at or below the calculated Km for ATP for each particular kinase.
Experimental for PINK: as §3
Experimental for ROCK 2: as §3

By inhibition is commonly meant how much of the control response was suppressed. Regarding `COc1ccc2sc(-c3cncc(NC(C)=O)c3)nc2c1` [4-93, N-(5-(5-Methoxybenzo[d]thiazol-2-yl)pyridin-3-yl)acetamide], the “tau/MAPT phosphorylation at Ser 396” value in test [1] is reported as “slight increase”. Also, the “tau/MAPT phosphorylation at Ser 404” value in test [1] is “slight increase”. Moreover, the inhibition at 1 µM amounted to 0% at EPH-B1; 0% at Aurora B; 0% at RIPK2; 0% at JNK3; 0% at PAK5; 12% at IRAK4. Besides, the “phosphorylation of Ser 214 normalised to total tau levels” value in test [2] (ten days treatment) is given as “unaffected”. In addition, the “phosphorylated tau/MAPT at Ser 396 normalised to total tau levels” value in [2] (setting [3]) is on record as “significantly lower”. For the same compound, in test [2] (setting [3]), the “phosphorylated tau/MAPT at Ser 404 normalised to total tau levels” value is reported as “significantly lower”. Further, the “tau phosphorylation at Ser 396” value in test [2] (setting [4]) is reported as “significantly reduced”. The “tau phosphorylation at Ser 404” value in [2] (setting [4]) is listed as “significantly reduced”. Further, the “phosphorylation at Ser 214” value in [2] (treated for 10 days, site not phosphorylated by DYRK1A) is “do not affect”.

Turning to `CS(=O)(=O)Nc1cncc(-c2nc3cc(O)ccc3s2)c1` [4-99, N-(5-(5-Hydroxybenzo[d]thiazol-2-yl)pyridin-3-yl)methanesulfonamide], the inhibition at 1 µM on EPH-B1 is 0%; on Aurora B, 0%; on CLK2, 44%; at RIPK2, 24%; on JNK3 it was 0%; on PAK5, 0%. Besides, the inhibition at 1 µM at IRAK4 was 8%; on GSK3b, 0%. Also, the percentage inhibition in the test on ROCK 2, with PHK, in the test on AMPK (hum) and in the test with PINK was 0% in each case.
